Reference: US8575153B2 (Kowa Company, Ltd., priority 2008, dated 2013)
Counter-ions that a name gives are not always drawn.

Target: Recombinant human JAK3 enzyme (JAK3 kinase region; Ala795-Ser1124) (Homo sapiens, UniProt P52333)
Test: JAK3 Kinase Assay (Kinase-Glo luminescent, ATP consumption)
Conditions: read-out: Inhibition rate (%) of JAK3 kinase activity

Sequence of Recombinant human JAK3 enzyme (JAK3 kinase region; Ala795-Ser1124) (P52333 795-1124): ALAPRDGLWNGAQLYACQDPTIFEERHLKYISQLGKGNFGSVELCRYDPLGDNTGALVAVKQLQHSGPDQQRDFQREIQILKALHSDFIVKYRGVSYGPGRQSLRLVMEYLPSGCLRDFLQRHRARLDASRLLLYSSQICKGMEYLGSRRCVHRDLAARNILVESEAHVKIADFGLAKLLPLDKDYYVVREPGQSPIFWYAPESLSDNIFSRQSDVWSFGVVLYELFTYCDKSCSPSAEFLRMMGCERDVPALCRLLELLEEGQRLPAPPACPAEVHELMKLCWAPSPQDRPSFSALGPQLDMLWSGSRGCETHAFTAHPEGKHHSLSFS

SMILES	inhibition at 0.1 µM [%]	inhibition at 1 µM [%]
CCN(CC)C(=O)N1CCN(c2ccc(Nc3cc(NCc4ccccc4)c(C(N)=O)cn3)cc2)CC1 [Example 282, 4-(benzylamino)-6-({4-[(4-diethylcarbamoyl)piperazin-1-yl]phenyl}amino)pyridine-3-carboxyamide]	89	
NC(=O)c1cnc(Nc2ccc(N3CCC(CCO)CC3)cc2)cc1NCc1cc(F)cc(F)c1 [Example 179]	78	
NC(=O)c1cnc(-c2c[nH]c3ncccc23)cc1NCc1cc(F)cc(F)c1 [Example 371, 4-[(3,5-difluorobenzyl)amino]-6-(1H-pyrrolo[2,3-b]pyridin-3-yl)pyridine-3-carboxyamide]		42
CC(C)NC(=O)N1CCN(c2ccc(Nc3cc(NCc4ccccc4)c(C(N)=O)cn3)cc2)CC1 [Example 283]	79	
CCN(CC)CC(=O)N1CCC(c2ccc(Nc3cc(NCc4ccccc4)c(C(N)=O)cn3)cc2)CC1 [Example 277, 4-(benzylamino)-6-({4-[1-(N,N-diethylglycyl)piperidin-4-yl]phenyl}amino)pyridine-3-carboxyamide]	70	
NC(=O)c1cnc(Nc2ccc(CN3CCOCC3)cc2)cc1NCc1ccccc1 [Example 318, 4-(benzylamino)-6-{[4-(morpholinomethyl)phenyl]amino}pyridine-3-carboxyamide]	83	
NC(=O)c1cnc(Nc2ccc(N3CCOCC3)cc2)cc1NCc1c(F)cccc1F [Example 94, 4-[(2,6-difluorobenzyl)amino]-6-[(4-morpholinophenyl)amino]pyridine-3-carboxyamide]	96	
NC(=O)c1cnc(Nc2ccc(N3CCC(O)CC3)cc2)cc1NCc1cccc(F)c1F [Example 187, 4-[(2,3-difluorobenzyl)amino]-6-{[4-(4-hydroxypiperidino)phenyl]amino}pyridine-3-carboxyamide]	85	
NC(=O)c1cnc(Nc2ccc(N3CCOCC3)cc2)cc1NCc1ccccn1 [Example 363, 6-[(4-morpholinophenyl)amino]-4-[(pyridin-2-ylmethyl)amino]pyridine-3-carboxyamide]		67
N#CCC(=O)N1CCN(c2cccc(Nc3cc(NCc4cc(F)cc(F)c4)c(C(N)=O)cn3)c2)CC1 [Example 267, 6-({3-[4-(cyanoacetyl)piperazin-1-yl]phenyl}amino)-4-[(3,5-difluorodibenzyl)amino]pyridine-3-carboxyamide]	72	
CS(=O)(=O)N1CCN(c2ccc(Nc3cc(NC4CCCCC4)c(C(N)=O)cn3)cc2)CC1 [Example 346, 4-cyclohexylamino-6-({4-[4-(methylsulfonyl)piperazin-1-yl]phenyl}amino)pyridine-3-carboxyamide]		72
CCN(CC)CCN1CCN(c2ccc(Nc3cc(NCc4cc(F)cc(F)c4)c(C(N)=O)cn3)cc2)CC1 [Example 238, 6-[(4-{4-[2-(diethylamino)ethyl]piperazin-1-yl}phenyl)amino]-4-[(3,5-difluorobenzyl)amino]pyridine-3-carboxyamide]	100	
NC(=O)c1cnc(Nc2ccc(N3CCC(C(=O)NCCO)CC3)cc2)cc1NCc1ccccc1 [Example 176, 4-(benzylamino)-6-[(4-{4-[(2-hydroxyethyl)carbamoyl]piperidino}phenyl)amino]pyridine-3-carboxyamide]	86	
NC(=O)c1cnc(Nc2ccc(NC(=O)C3CCNCC3)cc2)cc1NCc1cc(F)cc(F)c1 [Example 315, 4-[(3,5-difluorobenzyl)amino]-6-({4-[(piperidin-4-ylcarbonyl)amino]phenyl}amino)pyridine-3-carboxyamide hydrochloride]	60	
NC(=O)c1cnc(Nc2ccc(N3CCOCC3)cc2)cc1NC1CCOc2ccccc21 (stereo not drawn) [Example 351, 4-(3,4-dihydro-2H-1-benzopyran-4-ylamino)-6-[(4-morpholinophenyl)amino]pyridine-3-carboxyamide]		45
